{"source": "patent US20220273676A1", "about": "“CHOLECALCIFEROL FOR USE IN THE TREATMENT OF CELIAC DISEASE” (ABIOGEN PHARMA S.P.A., priority 2019, published 2022)", "key": {"NOD mice [1]": {"tested_on": "NOD mice", "experiment": "Histopathological lesion scoring (Marsh) of small intestine in NOD mouse model of celiac disease", "assay_type": "in vivo", "conditions": "for Lesion type 0, number of animals / Lesion type 1, number of animals / Lesion type 2, number of animals / Lesion type 3, number of animals: celiac NOD mice", "excerpt": "(§1) For the study, the NOD (Non Obese Diabetic) mouse was chosen as an experimental model which, when fed with a standard diet containing gluten, is able to spontaneously develop enteropathy and autoimmune disorders, with alterations of the small intestine similar to those observed. in human celiac disease.\n(§2) 103 female NOD mice aged four weeks were then placed in two different enclosure rooms (one for mice intended to follow a standard diet and one for mice intended for a gluten-free diet) and allowed to acclimate for a period of at least seven days.\n(§3) They were then randomly assigned to seven different experimental groups. The development of enteropathy was achieved by feeding NOD mice with a standard diet containing gluten and administering gliadin orally with a dosage of 10 μg/kg for ten consecutive days.\n(§4) The seven experimental groups are represented in the following table 1.\n(§5) At the end of the treatment period the mice were sacrificed. A macroscopic examination was performed and the small intestine was removed from each mouse to be subjected to microscopic examinations.\n(§6) In particular, histopathological and histomorphometric examinations were carried out on sections of intestine with a thickness of 5-7 μm placed in paraffin and stained with hematoxylin-eosin.\nThe scoring system described in Marsh et al, Gut 1990 January; 31 (1): 111-4 was used, to allow comparison between groups with different degrees of inflammatory infiltration and type of lesions observed under the microscope, which provides for the following classification: • lesion type 0: normal intestinal mucosa; • lesion type 1 (infiltrative): normal morphology and architecture of the villi, higher number of intraepithelial lymphocytes; • lesion type 2 (hyperplastic): normal morphology and architecture of the villi, higher number of intraepithelial lymphocytes, hyperplasia of the glandular elements; • lesion type 3 ([…]): different degrees of atrophy of the villi with hypertrophy of the glandular crypts, superficial enterocytes with reduced height, higher number of intraepithelial lymphocytes.\n(§7) Fifteen histomorphometric measurements of the height of the villi were then carried out from each of the five small intestine sections evaluated for each mouse. The results of the microscopic histopathological evaluation are summarized in the following table 2, which contains the four degrees of lesion previously described and the number of animals of each group presenting the various types of lesions."}, "T-cell marker (CD3)": {"tested_on": "T-cell marker (CD3)", "experiment": "Immunohistochemistry of CD3 in mucosa of small intestine of NOD mice", "assay_type": "in vivo, mouse", "conditions": "IHC", "protocol": "(§8) Small intestine samples were taken from mice belonging to experimental groups 2 (pathology control) and 7 (cholecalciferol 130 μg/kg) of the experiment described in Example 1 and were processed to evaluate by immunohistochemistry the expression of three proteins: the receptor for vitamin D (VDR), the T-cell marker (CD3) which indicates lymphocyte infiltration and the protein of Zonula Occludens 1 or Zonulin-1 (Z0-1) which is usually released in serum and tissue following destruction of the intestinal epithelial barrier, in particular of the intercellular tight junctions (TJs).\n(§9) The samples were washed in xylene, hydrated and washed in water with solutions of ethanol and water to scale. The recovery of the antigen was carried out in sodium citrate buffer using the standard “pressure cooker” protocol. Once the antigen recovery was completed, the samples were placed at room temperature for 10 ‘and washed twice for 2’ in PBS tween (phosphate buffer saline with tween). Non-specific sites were blocked with 200 μL of T20 starting block.\n(§10) They were then dispensed on each slide, either 200 μL of solution comprising the primary antibody of interest, or 200 μL of the respective negative control. The slides were then left to incubate overnight in a humid chamber with PBS at 4° C.\n(§11) After incubation, repeated washes were carried out in wash buffer at room temperature, after which the endogenous peroxidase was blocked with a 0.3% hydrogen peroxide buffer.\n(§12) Subsequently, repeated washes were carried out again in wash buffer at room temperature and the secondary antibody was added, which was left to incubate for 1 hour at room temperature.\n(§13) Repeated washings were then carried out again in wash buffer at room temperature. Subsequently, the DAB solution (3′,3′-Diaminobenzidine) was added, which was then blocked by washing at room temperature.\n(§14) Finally, counterstaining with Meyer's hematoxylin was carried out and the reaction was stopped by washing in water.\n(§15) The slides were then mounted with two drops of aqueous mounting medium and allowed to dry.\n(§16) Antibody labelling in villi, crypts and goblet cells was evaluated."}, "NOD mice [2]": {"tested_on": "NOD mice", "experiment": "Histomorphometric measurement of villus length in small intestine of NOD mice", "assay_type": "in vivo, mouse", "conditions": "for Villus length: celiac NOD mice", "excerpt": "as §1, §2, §3, §4, §5, §6, §7"}, "[3]": {"tested_on": "Zonula Occludens 1 or Zonulin-1 (Z0-1)", "experiment": "Immunohistochemistry of ZO-1 in mucosa of small intestine of NOD mice", "assay_type": "in vivo, mouse", "conditions": "130 μg/kg vs vehicle group, IHC", "protocol": "as §8, §9\nThey were then dispensed on each slide, either 200 μL of solution comprising the primary antibody of interest, or 200 μL of the respective negative control. The slides were then left to incubate overnight in a humid chamber with PBS at 4° C. […]\nas §16"}, "NOD mice [4]": {"tested_on": "NOD mice", "experiment": "Atrophy of the intestinal mucosa, Corazza-Villanacci classification, NOD mice", "assay_type": "in vivo, mouse", "protocol": "as §8\nThe atrophy of the intestinal mucosa was evaluated according to the Corazza-Villanacci classification."}, "[5]": {"tested_on": "receptor for vitamin D (VDR)", "experiment": "Immunohistochemistry of VDR in mucosa of small intestine of NOD mice", "assay_type": "in vivo, mouse", "conditions": "130 μg/kg vs pathology control, IHC", "protocol": "as §8, §9, §10, §11, §12, §13, §14, §15, §16"}, "[6]": {"conditions": "cited from earlier work"}, "[7]": {"tested_on": "tight intercellular junctions (TJs)", "conditions": "preliminary studies in vivo and in vitro, Dong et al. 2018; cited from earlier work"}, "[8]": {"conditions": "5 μg/kg/day orally once a day for 12 weeks, n = 15"}, "[9]": {"conditions": "10 μg/kg/day orally once a day for 12 weeks, n = 15"}, "[10]": {"conditions": "20 μg/kg/day orally once a day for 12 weeks, n = 16"}, "[11]": {"conditions": "50 μg/kg/day orally once a day for 12 weeks, n = 16"}, "[12]": {"conditions": "130 μg/kg/day orally once a day for 12 weeks, n = 15"}}, "data": [{"smiles": "C=C1CC[C@H](O)C/C1=C/C=C1\\CCC[C@]2(C)[C@@H]([C@H](C)CCCC(C)C)CC[C@@H]12", "note": "[Cholecalciferol]", "values": [{"measurement": "Lesion type 0, number of animals", "setting": "NOD mice [1]; [8]", "value": 0}, {"measurement": "Lesion type 1, number of animals", "setting": "NOD mice [1]; [8]", "value": 2}, {"measurement": "Lesion type 2, number of animals", "setting": "NOD mice [1]; [8]", "value": 13}, {"measurement": "Lesion type 3, number of animals", "setting": "NOD mice [1]; [8]", "value": 0}, {"measurement": "Lesion type 0, number of animals", "setting": "NOD mice [1]; [9]", "value": 0}, {"measurement": "Lesion type 1, number of animals", "setting": "NOD mice [1]; [9]", "value": 9}, {"measurement": "Lesion type 2, number of animals", "setting": "NOD mice [1]; [9]", "value": 4}, {"measurement": "Lesion type 3, number of animals", "setting": "NOD mice [1]; [9]", "value": 2}, {"measurement": "Lesion type 0, number of animals", "setting": "NOD mice [1]; [10]", "value": 0}, {"measurement": "Lesion type 1, number of animals", "setting": "NOD mice [1]; [10]", "value": 7}, {"measurement": "Lesion type 2, number of animals", "setting": "NOD mice [1]; [10]", "value": 4}, {"measurement": "Lesion type 3, number of animals", "setting": "NOD mice [1]; [10]", "value": 5}, {"measurement": "Lesion type 0, number of animals", "setting": "NOD mice [1]; [11]", "value": 3}, {"measurement": "Lesion type 1, number of animals", "setting": "NOD mice [1]; [11]", "value": 3}, {"measurement": "Lesion type 2, number of animals", "setting": "NOD mice [1]; [11]", "value": 9}, {"measurement": "Lesion type 3, number of animals", "setting": "NOD mice [1]; [11]", "value": 1}, {"measurement": "Lesion type 0, number of animals", "setting": "NOD mice [1]; [12]", "value": 3}, {"measurement": "Lesion type 1, number of animals", "setting": "NOD mice [1]; [12]", "value": 3}, {"measurement": "Lesion type 2, number of animals", "setting": "NOD mice [1]; [12]", "value": 6}, {"measurement": "Lesion type 3, number of animals", "setting": "NOD mice [1]; [12]", "value": 3}, {"measurement": "General depiction of the lesions compared to the untreated celiac mice", "setting": "NOD mice [1]; all tested doses (5-130 μg/kg)", "value": "overall improvement"}, {"measurement": "General depiction of the lesions compared to the untreated celiac mice", "setting": "NOD mice [1]; highest doses, repeated administrations of 50 and 130 μg/kg", "value": "significantly improved"}, {"measurement": "CD3 expression", "setting": "T-cell marker (CD3); 130 μg/kg vs pathology control", "value": "less expressed"}, {"measurement": "CD3 intensity of marking in goblet cells", "setting": "T-cell marker (CD3); 130 μg/kg vs pathology control", "value": "reduction in the intensity of the marking"}, {"measurement": "CD3 signal in goblet cells compared to the control", "setting": "T-cell marker (CD3); 130 μg/kg vs pathology control", "value": "reduction in the signal"}, {"measurement": "CD3 labelling of villi and crypts", "setting": "T-cell marker (CD3); 130 μg/kg", "value": "unlabeled"}, {"measurement": "Villus length", "setting": "NOD mice [2]; [8]", "value": 65.7, "unit": "×10 μm"}, {"measurement": "Villus length", "setting": "NOD mice [2]; [9]", "value": 71.2, "unit": "×10 μm"}, {"measurement": "Villus length", "setting": "NOD mice [2]; [10]", "value": 76.1, "unit": "×10 μm"}, {"measurement": "Villus length", "setting": "NOD mice [2]; [11]", "value": 75.0, "unit": "×10 μm"}, {"measurement": "Villus length", "setting": "NOD mice [2]; [12]", "value": 78.8, "unit": "×10 μm"}, {"measurement": "Relation between increase in the length of the villi and dose administered", "setting": "NOD mice [2]; 5-130 μg/kg", "value": "dose-dependent relationship"}, {"measurement": "Villus length compared to untreated celiac controls", "setting": "NOD mice [2]; all treated groups", "value": "longer than those of the untreated celiac controls"}, {"measurement": "ZO-1 marking of villi and crypts", "setting": "[3]", "value": "more marked in the group treated with the vehicle"}, {"measurement": "Atrophy of the villi", "setting": "NOD mice [4]; 130 μg/kg vs pathology control, ZO-1 slides", "value": "less marked"}, {"measurement": "Atrophy in the villi compared to vehicle treated control", "setting": "NOD mice [4]; 130 μg/kg, VDR slides", "value": "reduction in atrophy"}, {"measurement": "VDR marking in crypts", "setting": "[5]", "value": "the same phenomenon was observed in the crypts"}, {"measurement": "VDR marking in villi", "setting": "[5]", "value": "greater expression of VDR"}, {"measurement": "VDR, intensity of marking of goblet cells", "setting": "[5]", "value": "greater intensity of marking"}, {"measurement": "VDR, number of marked goblet cells", "setting": "[5]", "value": "smaller number of marked cells"}, {"measurement": "blood half-life (T1/2)", "setting": "[6]; estimated", "value": "19 to 25", "unit": "h"}, {"measurement": "functional half-life", "setting": "[6]; related to slow release by adipose tissue", "value": "several weeks"}]}, {"smiles": "C=C1/C(=C\\C=C2/CCC[C@]3(C)[C@@H]([C@H](C)CCCC(C)(C)O)CC[C@@H]23)C[C@@H](O)C[C@@H]1O", "note": "[calcitriol]", "values": [{"measurement": "Effect on the intestinal mucosal barrier towards PT-G", "setting": "[7]", "value": "protective action against TJs"}]}]}
